Data on 8 compounds can be found in US20260201008A1, “SECRETIN-DERIVED GLP1R SELECTIVE AGONISTS” (GUBRA A/S, priority 2023, published 2026).

Where two headings read alike, the source gives them in different places. Square brackets hold non-standard residues; d marks the D form. Peptide text beside a SMILES is read from it. Aib = CC(C)(N)C(=O)O

In one test the target is SCTR (Homo sapiens, UniProt P47872). The test can be described thus: hSCTR potency, cAMP accumulation in CHO-K1 cells stably overexpressing hSCTR. In kind it is cell-based. The conditions noted are these: read-out: pEC50 hSCTR (converted). Set-up: alternatively Euroscreen ES-712-AF; FAST-0161L; host or cells: CHO-K1. From the text:
(§1) Crude library peptides are screened in 10-fold serial dilutions of 5 concentrations, n=1 time. Tip change is done for the first two serial dilutions. Compound starting concentration (top) will be adjusted throughout the study if needed.
(§2) Purified peptides are screened in 3-fold serial dilutions of 11 concentrations, n=2 times. Tip change is done for all serial dilutions. Compound starting concentration (top) will be adjusted throughout the study. If the top concentration is adjusted or a 5-fold difference in calculated EC50 values is observed, n is increased by 1. EC50 values were calculated by nonlinear regression using sigmoid concentration-response with variable slope.
(§3) Frozen division arrested CHO-K1 cells stably overexpressing the hSCTR were obtained from PerkinElmer (ES-712-AF). Alternatively, a CHO-K1 cell line stably overexpressing the hSCTR was obtained from Euroscreen (FAST-0161L), expanded, aliquoted and frozen. An aliquot was thawed and plated in DPBS with 0.05% casein and 0.5 mM IBMX as 2000 cells/well in a 384-well format. The cells were then immediately stimulated for 30 min at room temperature with graded doses of test compound using human secretin (synthesized at Gubra) as a positive control. cAMP accumulation was measured using a Cisbio assay for Gs coupled receptors (cat. no. 62AM4PEC), where the assay reagents were added as per the manufacturer's instructions and time-resolved fluorescence energy transfer recorded after one hour on a CLARIOstar (BMG Labtech) plate reader.

The next test addresses GLP1R (Homo sapiens, UniProt P43220). The test can be described thus: hGLP1R potency, cAMP accumulation in CHO-K1 cells stably overexpressing hGLP1R. Conditions: for Selectivity: SCTR EC50/GLP1R EC50 ratio; for EC50: read-out: pEC50 hGLPR1 (converted). In kind it is cell-based. Details: host or cells: CHO-K1.
Description: as §1, §2
as §3, with “A” for “Frozen division arrested CHO-K1 cells stably overexpressing the hSCTR were obtained from PerkinElmer (ES-712-AF). Alternatively, a”, “hGLP1R” for “hSCTR”, “(FAST-0145L),” for “(FAST-0161L),”, “GLP-1(7-36)” for “secretin”

The mark [1] stands for this setting: Table 3, position X^10 variants of GUB06-046.
Where [2] appears, read: Table 4, position X12 variants of GUB06-046.

Chain of GLP1R (P43220 24-463): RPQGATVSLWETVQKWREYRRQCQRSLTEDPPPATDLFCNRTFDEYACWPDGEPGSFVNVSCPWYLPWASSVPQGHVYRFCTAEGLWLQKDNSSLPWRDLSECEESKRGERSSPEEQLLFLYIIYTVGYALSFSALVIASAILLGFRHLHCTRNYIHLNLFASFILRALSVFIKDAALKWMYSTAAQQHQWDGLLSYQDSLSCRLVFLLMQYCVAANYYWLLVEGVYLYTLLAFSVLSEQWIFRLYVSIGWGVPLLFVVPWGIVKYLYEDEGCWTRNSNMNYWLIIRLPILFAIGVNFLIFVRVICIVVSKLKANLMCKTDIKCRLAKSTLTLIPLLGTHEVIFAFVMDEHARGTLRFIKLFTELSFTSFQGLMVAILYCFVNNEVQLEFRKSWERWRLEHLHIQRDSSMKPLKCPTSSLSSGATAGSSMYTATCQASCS
Chain of SCTR (P47872 23-440): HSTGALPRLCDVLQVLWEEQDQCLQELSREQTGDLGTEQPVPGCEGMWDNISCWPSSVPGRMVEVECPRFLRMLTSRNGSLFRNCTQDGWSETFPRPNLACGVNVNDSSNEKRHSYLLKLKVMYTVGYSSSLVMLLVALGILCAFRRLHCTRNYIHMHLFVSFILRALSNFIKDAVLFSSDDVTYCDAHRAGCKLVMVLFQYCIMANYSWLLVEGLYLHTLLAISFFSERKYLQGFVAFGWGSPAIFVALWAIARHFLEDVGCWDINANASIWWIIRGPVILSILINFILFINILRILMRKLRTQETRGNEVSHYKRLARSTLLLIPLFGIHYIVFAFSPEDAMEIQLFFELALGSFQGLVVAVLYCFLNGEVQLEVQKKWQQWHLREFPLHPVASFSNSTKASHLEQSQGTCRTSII

On to `CC[C@H](C)[C@H](NC(=O)[C@H](Cc1ccccc1)NC(=O)[C@H](CCCNC(=N)N)NC(=O)[C@H](CCC(N)=O)NC(=O)[C@H](CC(C)C)NC(=O)[C@H](C)NC(=O)[C@H](C)NC(=O)CNC(=O)[C@H](CCC(=O)O)NC(=O)[C@H](CC(C)C)NC(=O)[C@H](CC(C)C)NC(=O)[C@H](CCCNC(=N)N)NC(=O)[C@H](CO)NC(=O)[C@H](CC(C)C)NC(=O)[C@H](CC(=O)O)NC(=O)[C@H](CO)NC(=O)[C@@H](NC(=O)[C@H](Cc1ccccc1)NC(=O)[C@@H](NC(=O)CNC(=O)[C@H](CCC(=O)O)NC(=O)C(C)(C)NC(=O)[C@@H](N)Cc1c[nH]cn1)[C@@H](C)O)[C@@H](C)O)C(=O)N[C@@H](CCC(N)=O)C(=O)N[C@@H](Cc1c[nH]c2ccccc12)C(=O)N[C@@H](CC(C)C)C(=O)N[C@H](C(N)=O)C(C)C` [compound 216] (H-H[Aib]EGTFTSDLSRLLEGAALQRFIQWLV-NH2), for which the EC50 on SCTR (setting [1]) was 0.501 nM; at SCTR (setting [2]), 0.501 nM; on GLP1R (setting [1]) it was 0.0398 nM; on GLP1R (setting [2]), 0.0398 nM. Moreover, the Selectivity at GLP1R (setting [1]) and on GLP1R (setting [2]) was 13 throughout.

As for `CC[C@H](C)[C@H](NC(=O)[C@H](Cc1ccccc1)NC(=O)[C@H](CCCNC(=N)N)NC(=O)[C@H](CCC(N)=O)NC(=O)[C@H](CC(C)C)NC(=O)[C@H](C)NC(=O)[C@H](C)NC(=O)CNC(=O)[C@H](CCC(=O)O)NC(=O)[C@H](CC(C)C)NC(=O)[C@H](CC(C)C)NC(=O)C(C)(C)NC(=O)[C@H](CO)NC(=O)[C@H](CC(C)C)NC(=O)[C@H](CC(=O)O)NC(=O)[C@H](CO)NC(=O)[C@@H](NC(=O)[C@H](Cc1ccccc1)NC(=O)[C@@H](NC(=O)CNC(=O)[C@H](CCC(=O)O)NC(=O)C(C)(C)NC(=O)[C@@H](N)Cc1c[nH]cn1)[C@@H](C)O)[C@@H](C)O)C(=O)N[C@@H](CCC(N)=O)C(=O)N[C@@H](Cc1c[nH]c2ccccc12)C(=O)N[C@@H](CC(C)C)C(=O)N[C@H](C(N)=O)C(C)C` [compound 223] (H-H[Aib]EGTFTSDLS[Aib]LLEGAALQRFIQWLV-NH2), at SCTR (setting [2]), the EC50 is 5.01 nM. For the same compound, at GLP1R (setting [2]), the Selectivity was found to be 78 and the EC50 is 0.0631 nM.

With `CC[C@H](C)[C@H](NC(=O)[C@H](Cc1ccccc1)NC(=O)[C@H](CCCNC(=N)N)NC(=O)[C@H](CCC(N)=O)NC(=O)[C@H](CC(C)C)NC(=O)[C@H](C)NC(=O)[C@H](C)NC(=O)CNC(=O)[C@H](CCC(=O)O)NC(=O)[C@H](CC(C)C)NC(=O)[C@H](CC(C)C)NC(=O)[C@H](CCC(=O)O)NC(=O)[C@H](CO)NC(=O)[C@H](CC(C)C)NC(=O)[C@H](CC(=O)O)NC(=O)[C@H](CO)NC(=O)[C@@H](NC(=O)[C@H](Cc1ccccc1)NC(=O)[C@@H](NC(=O)CNC(=O)[C@H](CCC(=O)O)NC(=O)C(C)(C)NC(=O)[C@@H](N)Cc1c[nH]cn1)[C@@H](C)O)[C@@H](C)O)C(=O)N[C@@H](CCC(N)=O)C(=O)N[C@@H](Cc1c[nH]c2ccccc12)C(=O)N[C@@H](CC(C)C)C(=O)N[C@H](C(N)=O)C(C)C` [compound 224] (H-H[Aib]EGTFTSDLSELLEGAALQRFIQWLV-NH2), the EC50 is 1.58 nM on SCTR (setting [2]) and 0.0126 nM on GLP1R (setting [2]). For the same compound, the Selectivity on GLP1R (setting [2]) worked out at 120.

For the compound `CC[C@H](C)[C@H](NC(=O)[C@H](Cc1ccccc1)NC(=O)[C@H](CCCNC(=N)N)NC(=O)[C@H](CCC(N)=O)NC(=O)[C@H](CC(C)C)NC(=O)[C@H](C)NC(=O)[C@H](C)NC(=O)CNC(=O)[C@H](CCC(=O)O)NC(=O)[C@H](CC(C)C)NC(=O)[C@H](CC(C)C)NC(=O)[C@H](Cc1ccccc1)NC(=O)[C@H](CO)NC(=O)[C@H](CC(C)C)NC(=O)[C@H](CC(=O)O)NC(=O)[C@H](CO)NC(=O)[C@@H](NC(=O)[C@H](Cc1ccccc1)NC(=O)[C@@H](NC(=O)CNC(=O)[C@H](CCC(=O)O)NC(=O)C(C)(C)NC(=O)[C@@H](N)Cc1c[nH]cn1)[C@@H](C)O)[C@@H](C)O)C(=O)N[C@@H](CCC(N)=O)C(=O)N[C@@H](Cc1c[nH]c2ccccc12)C(=O)N[C@@H](CC(C)C)C(=O)N[C@H](C(N)=O)C(C)C` [compound 225] (H-H[Aib]EGTFTSDLSFLLEGAALQRFIQWLV-NH2), the EC50 at SCTR (setting [2]) was 7.94 nM. Besides, on GLP1R (setting [2]), the Selectivity stood at 328 and the EC50 was 0.0251 nM.

For `CC[C@H](C)[C@H](NC(=O)[C@H](Cc1ccccc1)NC(=O)[C@H](CCCNC(=N)N)NC(=O)[C@H](CCC(N)=O)NC(=O)[C@H](CC(C)C)NC(=O)[C@H](C)NC(=O)[C@H](C)NC(=O)CNC(=O)[C@H](CCC(=O)O)NC(=O)[C@H](CC(C)C)NC(=O)[C@H](CC(C)C)NC(=O)CNC(=O)[C@H](CO)NC(=O)[C@H](CC(C)C)NC(=O)[C@H](CC(=O)O)NC(=O)[C@H](CO)NC(=O)[C@@H](NC(=O)[C@H](Cc1ccccc1)NC(=O)[C@@H](NC(=O)CNC(=O)[C@H](CCC(=O)O)NC(=O)C(C)(C)NC(=O)[C@@H](N)Cc1c[nH]cn1)[C@@H](C)O)[C@@H](C)O)C(=O)N[C@@H](CCC(N)=O)C(=O)N[C@@H](Cc1c[nH]c2ccccc12)C(=O)N[C@@H](CC(C)C)C(=O)N[C@H](C(N)=O)C(C)C` [compound 226] (H-H[Aib]EGTFTSDLSGLLEGAALQRFIQWLV-NH2), at SCTR (setting [2]), the EC50 was 5.01 nM. Further, at GLP1R (setting [2]), the Selectivity was found to be 145 and the EC50 was 0.0316 nM.

On to `CC[C@H](C)[C@H](NC(=O)[C@H](Cc1ccccc1)NC(=O)[C@H](CCCNC(=N)N)NC(=O)[C@H](CCC(N)=O)NC(=O)[C@H](CC(C)C)NC(=O)[C@H](C)NC(=O)[C@H](C)NC(=O)CNC(=O)[C@H](CCC(=O)O)NC(=O)[C@H](CC(C)C)NC(=O)[C@H](CC(C)C)NC(=O)[C@@H](NC(=O)[C@H](CO)NC(=O)[C@H](CC(C)C)NC(=O)[C@H](CC(=O)O)NC(=O)[C@H](CO)NC(=O)[C@@H](NC(=O)[C@H](Cc1ccccc1)NC(=O)[C@@H](NC(=O)CNC(=O)[C@H](CCC(=O)O)NC(=O)C(C)(C)NC(=O)[C@@H](N)Cc1c[nH]cn1)[C@@H](C)O)[C@@H](C)O)C(C)C)C(=O)N[C@@H](CCC(N)=O)C(=O)N[C@@H](Cc1c[nH]c2ccccc12)C(=O)N[C@@H](CC(C)C)C(=O)N[C@H](C(N)=O)C(C)C` [compound 227] (H-H[Aib]EGTFTSDLSVLLEGAALQRFIQWLV-NH2), for which the EC50 on SCTR (setting [2]) is 1.26 nM. Besides, on GLP1R (setting [2]), the Selectivity is recorded as 43 and the EC50 was 0.0316 nM.

Regarding `CC[C@H](C)[C@H](NC(=O)[C@H](Cc1ccccc1)NC(=O)[C@H](CCCNC(=N)N)NC(=O)[C@H](CCC(N)=O)NC(=O)[C@H](CC(C)C)NC(=O)[C@H](C)NC(=O)[C@H](C)NC(=O)CNC(=O)[C@H](CCC(=O)O)NC(=O)[C@H](CC(C)C)NC(=O)[C@H](CC(C)C)NC(=O)[C@H](Cc1c[nH]c2ccccc12)NC(=O)[C@H](CO)NC(=O)[C@H](CC(C)C)NC(=O)[C@H](CC(=O)O)NC(=O)[C@H](CO)NC(=O)[C@@H](NC(=O)[C@H](Cc1ccccc1)NC(=O)[C@@H](NC(=O)CNC(=O)[C@H](CCC(=O)O)NC(=O)C(C)(C)NC(=O)[C@@H](N)Cc1c[nH]cn1)[C@@H](C)O)[C@@H](C)O)C(=O)N[C@@H](CCC(N)=O)C(=O)N[C@@H](Cc1c[nH]c2ccccc12)C(=O)N[C@@H](CC(C)C)C(=O)N[C@H](C(N)=O)C(C)C` [compound 228] (H-H[Aib]EGTFTSDLSWLLEGAALQRFIQWLV-NH2), on SCTR (setting [2]), the EC50 is 0.794 nM. Further, at GLP1R (setting [2]), the Selectivity worked out at 53 and the EC50 is 0.0158 nM.

As for `CC[C@H](C)[C@H](NC(=O)[C@H](Cc1ccccc1)NC(=O)[C@H](CCCNC(=N)N)NC(=O)[C@H](CCC(N)=O)NC(=O)[C@H](CC(C)C)NC(=O)[C@H](C)NC(=O)[C@H](C)NC(=O)CNC(=O)[C@H](CCC(=O)O)NC(=O)[C@H](CC(C)C)NC(=O)[C@H](CC(C)C)NC(=O)[C@H](Cc1ccc(O)cc1)NC(=O)[C@H](CO)NC(=O)[C@H](CC(C)C)NC(=O)[C@H](CC(=O)O)NC(=O)[C@H](CO)NC(=O)[C@@H](NC(=O)[C@H](Cc1ccccc1)NC(=O)[C@@H](NC(=O)CNC(=O)[C@H](CCC(=O)O)NC(=O)C(C)(C)NC(=O)[C@@H](N)Cc1c[nH]cn1)[C@@H](C)O)[C@@H](C)O)C(=O)N[C@@H](CCC(N)=O)C(=O)N[C@@H](Cc1c[nH]c2ccccc12)C(=O)N[C@@H](CC(C)C)C(=O)N[C@H](C(N)=O)C(C)C` [compound 229] (H-H[Aib]EGTFTSDLSYLLEGAALQRFIQWLV-NH2), the EC50 on SCTR (setting [2]) was 10 nM; on GLP1R (setting [2]) it was 0.0158 nM. Moreover, the Selectivity at GLP1R (setting [2]) is 699.
